Like-named read-outs stand apart in the source and are kept apart here.
Legend:
[1] = set-up: method as in ref 14, Figure 2; conditions: fed, published; Figure 2; cited from earlier work
[2] = Equilibrium solubility in simulated intestinal fluid, dual level DoE, combined fasted and fed arm; type: physicochemical; conditions: for significance of sodium oleate for solubility: Figure 4, significance ±2, positive solubility impact; for significant two way factor interactions on solubility: eight two way interactions, Figure 4
Excerpt: (§1) For each media parameter (bile salt, lecithin, sodium oleate, monoglyceride, cholesterol, pH and BS: PL ratio) lower and upper limit concentration values for fasted and fed states were defined, Table 1. Using Minitab 17.2.1 and a custom experimental design, a 1/16 of the full factorial DoE with the seven factors and two levels (lower and upper limits) was constructed (8 experiments around the upper and lower levels plus two center points) separately for the fasted and the fed states. These two tables were then applied as an input for a factorial custom design of experiment which combined the fasted and fed using all 20 data points to provide an overall analysis. The study therefore consists of three arms, two smaller (10 data point) fasted and fed arms, which are then merged into a larger (20 data point) combined arm.
(§2) When designing and analyzing the DoE, only a factor’s main effects and 2 way interactions have been considered and 3 way interactions or more were not included. For each DoE the magnitude for each factor’s effect on equilibrium solubility was determined by the standardized effect value for all of the individual factors and the significant 2-way interactions. This value was used to articulate whether these factors are increasing or decreasing drug solubility.
(§3) The solution was prepared by the addition of an excess amount (above the estimated solubility) of solid for each compound investigated to a centrifuge tube (15 mL Corning Centristar cap, polypropylene RNase/DNase free, nonpyrogenic) followed by the addition of each component of the simulated intestinal fluid media according to the run order generated by the DoE. After all of the media components were added, pH was adjusted to 5, 6, or 7 according to the run order using 0.1 M HCl or 0.1 M KOH and tubes were capped and placed on an orbital shaker (OS 5 basic Yellowline, IKA, Germany) for 1 h after which the pH was readjusted if required. The 20 different tubes were then shaken in a tube rotator for 24 h at 40 rpm at 37 °C to simulate intestinal fluid conditions. After 24 h, a 1 mL amount was taken from each of the 20 tubes and transferred to a 1.5 mL Eppendorf tube then centrifuged at 15 000 rpm for 5 min. Following centrifugation 0.5 mL of the supernatant solution was transferred to an HPLC vial to analyze drug solubility using HPLC (Table 4).

[3] = Statistical comparison of equilibrium solubility data sets (Mann-Whitney test / two-sample t-test); type: physicochemical; conditions: for statistical comparison of fasted against fed equilibrium solubility: current dual level DoE, where significant, fasted solubility lower than fed; for statistical comparison of dual level fasted with published fasted equilibrium solubility: current fasted arm vs published fasted DoE; for statistical comparison of dual level fed with published fed equilibrium solubility: current fed arm vs published fed DoE
Excerpt: The Kolmogorov normality test was used in Minitab to assess the normality distribution of each data set. A Mann–Whitney test was used to evaluate the median between two data sets (not normally distributed) and the two-sample t-test was used to evaluate the mean of two data sets (normally distributed).

[4] = set-up: method as in ref 13, Figure 2; conditions: fasted, published; Figure 2; cited from earlier work
[5] = Equilibrium solubility in simulated intestinal fluid, dual level DoE, fed arm; type: physicochemical; conditions: for statistical significance of DoE factor BS:PL on equilibrium solubility / statistical significance of DoE factor bile salt on equilibrium solubility / statistical significance of DoE factor cholesterol on equilibrium solubility / statistical significance of DoE factor lecithin on equilibrium solubility / statistical significance of DoE factor monoglyceride on equilibrium solubility / statistical significance of DoE factor pH on equilibrium solubility / statistical significance of DoE factor sodium oleate on equilibrium solubility: fed, current study (Figure 3)
Excerpt: as §1, §2, §3

[6] = Equilibrium solubility in simulated intestinal fluid, dual level DoE, fasted arm; type: physicochemical; conditions: for direction of monoglyceride effect on solubility (standardized effect): fasted arm, Figure 3; for statistical significance of DoE factor BS:PL on equilibrium solubility / statistical significance of DoE factor bile salt on equilibrium solubility / statistical significance of DoE factor cholesterol on equilibrium solubility / statistical significance of DoE factor lecithin on equilibrium solubility / statistical significance of DoE factor monoglyceride on equilibrium solubility / statistical significance of DoE factor pH on equilibrium solubility / statistical significance of DoE factor sodium oleate on equilibrium solubility: fasted, current study (Figure 3); for significant DoE factors influencing solubility: fasted and fed study arms together (14 possible values per drug), significance ±4
Excerpt: as §1, §2, §3

[7] = combined arm, Figure 4, significance ±2

| statistical comparison of fasted against fed equilibrium solubility [3] | statistical significance of DoE factor BS:PL on equilibrium solubility [5] | statistical significance of DoE factor bile salt on equilibrium solubility [5] | statistical significance of DoE factor cholesterol on equilibrium solubility [5] | statistical significance of DoE factor lecithin on equilibrium solubility [5] | statistical significance of DoE factor monoglyceride on equilibrium solubility [5] | statistical significance of DoE factor pH on equilibrium solubility [5] | statistical significance of DoE factor sodium oleate on equilibrium solubility [5] | statistical significance of DoE factor BS:PL on equilibrium solubility [6] | statistical significance of DoE factor bile salt on equilibrium solubility [6] | statistical significance of DoE factor cholesterol on equilibrium solubility [6] | statistical significance of DoE factor lecithin on equilibrium solubility [6] | SMILES | statistical significance of DoE factor bile salt on equilibrium solubility [1] | statistical significance of DoE factor lecithin on equilibrium solubility [1] | statistical significance of DoE factor monoglyceride on equilibrium solubility [1] | statistical significance of DoE factor pH on equilibrium solubility [1] | statistical significance of DoE factor bile salt on equilibrium solubility [4] | statistical significance of DoE factor lecithin on equilibrium solubility [4] | statistical significance of DoE factor pH on equilibrium solubility [4] | statistical significance of DoE factor sodium oleate on equilibrium solubility [4] | other results |
| --- | --- | --- | --- | --- | --- | --- | --- | --- | --- | --- | --- | --- | --- | --- | --- | --- | --- | --- | --- | --- | --- |
| no statistically significant difference | NS ^e | NS ^e ^g | NS ^e | NS ^e ^g | NS ^e | NS ^e ^g | NS ^e ^g | NS ^e | NS ^e ^g | NS ^e | S ^d ^g | C[C@@H](O[C@H]1OCCN(Cc2n[nH]c(=O)[nH]2)[C@H]1c1ccc(F)cc1)c1cc(C(F)(F)F)cc(C(F)(F)F)c1 [aprepitant] | S ^d ^g | S ^d ^g | NS ^e | S ^d ^g | S ^d ^g | NS ^e ^g | S ^d ^g | S ^d | statistical significance of DoE factor sodium oleate on equilibrium solubility [1]: S ^d ^g; significance of lecithin for solubility [2, 7]: significant; significance of sodium oleate for solubility ([2]; combined arm): significant; statistical comparison of dual level fasted with published fasted equilibrium solubility [3]: significantly different; statistical comparison of dual level fed with published fed equilibrium solubility [3]: significantly different; direction of monoglyceride effect on solubility (standardized effect) [6]: positively impacts; statistical significance of DoE factor monoglyceride on equilibrium solubility [6]: S ^d; statistical significance of DoE factor pH on equilibrium solubility [6]: NS ^e ^g; statistical significance of DoE factor sodium oleate on equilibrium solubility [6]: S ^d |
| significant difference | NS ^e | NS ^e ^g | NS ^e | NS ^e | NS ^e ^g | NS ^e ^g | NS ^e ^g | NS ^e | NS ^e ^g | NS ^e | NS ^e ^g | COc1ccccc1OCCNCC(O)COc1cccc2[nH]c3ccccc3c12 (stereo not drawn) [carvedilol] | S ^d ^g | NS ^e | S ^d ^g | S ^d ^g | S ^d ^g | S ^d ^g | S ^d ^g | S ^d ^g | statistical significance of DoE factor sodium oleate on equilibrium solubility [1]: S ^d ^g; significance of sodium oleate for solubility ([2]; combined arm): significant; statistical comparison of dual level fed with published fed equilibrium solubility [3]: significantly different; significant DoE factors influencing solubility [6]: no significant factors; statistical significance of DoE factor monoglyceride on equilibrium solubility [6]: NS ^e; statistical significance of DoE factor pH on equilibrium solubility [6]: NS ^e ^g; statistical significance of DoE factor sodium oleate on equilibrium solubility [6]: NS ^e ^g |
| significant difference | NS ^e | S ^d | NS ^e | S ^d | S ^d ^g | NS ^e ^g | S ^d | NS ^e | NS ^e ^g | NS ^e | S ^d | CCOC(=O)C1=C(C)NC(C)=C(C(=O)OC)C1c1cccc(Cl)c1Cl (stereo not drawn) [felodipine] | S ^d | S ^d | NS ^e ^g | S ^d ^g | S ^d ^g | S ^d | S ^d | S ^d | statistical significance of DoE factor sodium oleate on equilibrium solubility [1]: S ^d; significance of bile salt for solubility [2, 7]: significant; significance of cholesterol for solubility [2, 7]: significant; statistical comparison of dual level fasted with published fasted equilibrium solubility [3]: significantly different; direction of monoglyceride effect on solubility (standardized effect) ([5]; fed arm, Figure 3): positive effect; significant DoE factors influencing solubility [6]: eight out of a possible 14; direction of monoglyceride effect on solubility (standardized effect) [6]: positive effect; statistical significance of DoE factor monoglyceride on equilibrium solubility [6]: S ^d; statistical significance of DoE factor pH on equilibrium solubility [6]: S ^d; statistical significance of DoE factor sodium oleate on equilibrium solubility [6]: S ^d |
| no statistically significant difference | NS ^e | NS ^e ^g | NS ^e | NS ^e | NS ^e | S ^d | NS ^e ^g | NS ^e | NS ^e ^g | NS ^e | NS ^e | COc1ccc2c(c1)c(CC(=O)O)c(C)n2C(=O)c1ccc(Cl)cc1 [indomethacin] | S ^d ^g | NS ^e | NS ^e | S ^d | S ^d ^g | NS ^e | S ^d | S ^d ^g | statistical significance of DoE factor sodium oleate on equilibrium solubility [1]: S ^d ^g; significance of pH for solubility [2, 7]: significant; significant two way factor interactions on solubility ([2]; combined arm): no significant interactions; statistical significance of DoE factor monoglyceride on equilibrium solubility [6]: NS ^e; statistical significance of DoE factor pH on equilibrium solubility [6]: S ^d; statistical significance of DoE factor sodium oleate on equilibrium solubility [6]: NS ^e ^g |
| no statistically significant difference | NS ^e | NS ^e ^g | NS ^e | NS ^e ^g | NS ^e ^g | NS ^e ^g | S ^d ^g | S ^d | NS ^e | NS ^e | NS ^e | CC(C)(Sc1cc(C(C)(C)C)c(O)c(C(C)(C)C)c1)Sc1cc(C(C)(C)C)c(O)c(C(C)(C)C)c1 [probucol] | S ^d ^g | S ^d ^g | S ^d ^g | S ^d ^g | NS ^e | NS ^e | S ^d ^g | S ^d | variability of equilibrium solubility ([2]; across DoE media, fasted or fed arm, Figures 1 and 2): large variability; significant two way factor interactions on solubility ([2]; combined arm): significant interactions; statistical comparison of dual level fasted with published fasted equilibrium solubility [3]: significantly different; statistical significance of DoE factor monoglyceride on equilibrium solubility [6]: NS ^e; statistical significance of DoE factor pH on equilibrium solubility [6]: NS ^e ^g; statistical significance of DoE factor sodium oleate on equilibrium solubility [6]: S ^d |
